Columns and labels:
[1] = test system: Staphylococcus aureus Motol; settings: Staphylococcus aureus Motol clinical isolate; 37° C., 20 h
Experimental: (§1) Gram-positive bacteria (Micrococcus luteus, Bacillus subtilis, Staphylococcus aureus, Staphylococcus epidermidis and Enterococcus faecalis), Gram-negative bacteria (Escherichia coli and Pseudomonas aeruginosa) and the yeast (Candida albicans) were grown to exponential phase and then were diluted with fresh medium. BHI medium (Oxoid, Great Britain) was used for Enterococcus faecalis; YPD medium containing yeast extract peptone and glucose was used for Candida albicans and LB medium (Sigma, Czech Republic) was used for the remaining microorganisms. Then the microorganisms were added to the solutions of the tested antimicrobial peptides in LB medium in multi-well plates. The final peptide concentration it the wells was in the range of 0.1 to 100 μmol.l^−1. That was made by twofold serial dilution from the peptide stock solution (1 mmol.l^−1). The plates were incubated at 37° C. for 20 h while being continuously shaken in a Bioscreen C (Oy Growth Curves AB Ltd., Helsinki, Finland). Absorbance was measured at 540 nm every 15 min. Antimicrobial activity (Table 2) was determined as a quantitative minimum inhibitory concentration (MIC) by observing bacterial growth in the presence of different concentrations of tested peptides. In the experiments ca 10^5 CFU of bacteria or candida per well were routinely used.
(§2) Multiresistant clinical isolates of bacteria were obtained from University Hospital in Motol, Prague, Czech Republic and from Liberec Regional Hospital, Czech Republic. Methicillin resistant Staphylococcus aureus (MRSA) 6271 and Pseudomonas aeruginosa 5482 were from the Czech National Collection of Type Cultures, the National Institute of Public Health, Prague, Czech Republic. Other bacteria were from the Czech Collection of Microorganisms, Brno, Czech Republic. Candida albicans came from the Faculty of Medicine, Palacky University, Olomouc, Czech Republic.

[2] = test system: Pseudomonas aeruginosa 5482; settings: 37° C., 20 h
Experimental: as §1, §2

[3] = test system: Methicillin resistant Staphylococcus aureus (MRSA) 6271; settings: 37° C., 20 h
Experimental: as §1, §2

[4] = test system: Bacillus subtilis; settings: for Antimicrobial activity MIC B. s.: Bacillus subtilis, 37° C., 20 h
Experimental: as §1, §2

[5] = test system: Micrococcus luteus; settings: for Antimicrobial activity MIC M. l.: Micrococcus luteus, 37° C., 20 h
Experimental: as §1, §2

[6] = test system: Escherichia coli; settings: 37° C., 20 h
Experimental: as §1, §2

[7] = test system: Staphylococcus epidermidis Motol; settings: 37° C., 20 h
Experimental: as §1, §2

[8] = test system: Pseudomonas aeruginosa Liberec; settings: for Antimicrobial activity MIC P. a. Liberec: Pseudomonas aeruginosa Liberec, 37° C., 20 h
Experimental: as §1, §2

[9] = test system: Enterococcus faecalis Motol; settings: BHI medium, 37° C., 20 h
Experimental: as §1, §2

[10] = test system: Staphylococcus aureus Liberec; settings: for Antimicrobial activity MIC S. a. Liberec: Staphylococcus aureus Liberec clinical isolate, 37° C., 20 h
Experimental: as §1, §2

[11] = test system: P. aeruginosa (Liberec); assay: Synergistic effect of peptides with antibiotics, FIC index; assay type: cell-based, Pseudomonas aeruginosa; settings: FIC <0.5 synergism, 0.5-2 additive, >2 antagonism, averages of three experiments; for FIC indexes (fractional inhibitory concentration) Combination with RIF against P. aeruginosa: peptide combined with rifampicin; for FIC indexes (fractional inhibitory concentration) Combination with TET against P. aeruginosa: peptide combined with tetracycline
Experimental: MICs values of various combinations of two fold serial dilutions of peptides and antibiotics were determined using the same methodology as in the case of antimicrobial activity determination (Example 2). To consider the type of the final effect, FIC indexes (fractional inhibitory concentration) were used and calculated as follows:
[formula] where MICPC and MICAC are the MICs of the peptide and antibiotic in combination, respectively, and MICP and MICA are the MICs of the peptide and antibiotic tested alone, respectively. FIC<0.5 were considered as synergy, 0.5≤FIC≤2 as addition effect, and FIC>2 as antagonism.

[12] = test system: Candida glabrata ATCC 2001; assay: microbe, parasite or virus in culture; assay type: cell-based; settings: RPMI broth microdilution, 35° C., 48 hours, visual
Experimental: (§3) All yeasts Candida albicans (Olomouc) and ATCC MYA-2876, Candida glabrata ATCC 2001 and DSY 565, Candida dubliniensis ATCC MYA-646, Candida krusei ATCC 6258 and Candida tropicalis ATCC 750 were sub-cultured from sterile vials onto Sabouraud dextrose agar, which was composed of 40 g dextrose (Penta, Czech Republic), 10 g peptone (OXOID, Great Britain) and 17 g agar (OXOID), dissolved in 1 l of distilled water, and cultivated for 24 hours at 35° C.
(§4) All strains were stored in a way that minimizes the possibility of mutation. Candida spp. were grown overnight in liquid YPD medium which is composed of 10 g yeast extract (DIFCO, USA), 20 g peptone (OXOID), and 20 g dextrose (Penta) dissolved in 1 l distilled water. Then the overnight culture was cryogenically preserved by suspending in 50% glycerol solution (1:1) in small vials and stored at −80° C.
(§5) The inoculum was prepared by picking five colonies from 24-hour-old cultures of Candida spp. The colonies were suspended in 1 ml of sterile saline solution and vortexed for 15 seconds. Optical density of the suspension was adjusted spectrophotometrically by adding sterile saline solution to produce optical density of 0.18 at 600 nm. A working suspension was made by a 1:50 dilution followed by a 1:20 dilution of the stock suspension with RPMI 1640 broth medium which was composed of L-glutamine without NaHCO3 (BioSera, France), and with 0.165 mol.l^−1 MOPS (Duchefa, Netherland)—further as RPMI broth medium.
(§6) The broth microdilution test was performed by using sterile, disposable, multi-well microdilution plates (96-well). The peptides in the concentrations 0.625-160 μmol.l^−1 were pipetted into the wells in 100 μl volumes. Each well of the plate was inoculated with 100 μl of the diluted inoculum suspension. Final yeast density in each well was 5×10^2 up to 2.5×10^3 CFU/ml. The microdilution plates were incubated without shaking at 35° C. and observed for the presence or absence of visible growth for 48 hours.
(§7) Drug-free medium without inoculation served as negative control; the growth positive control contained inoculated drug-free medium. Amphotericin B was used as control drug to ensure quality of Candida strains.
(§8) The minimal inhibition concentrations (MICs) were visually determined 48 hours after inoculation. The MIC values were defined as the lowest concentration in which no observable growth is noticeable.
(§9) All yeast isolates were obtained from the Institute of Physiology of the Academy of Sciences of the Czech Republic. Candida albicans (Olomouc) came from the Faculty of Medicine and Dentistry, Palacý University Olomouc.

[13] = test system: Candida albicans ATCC MYA-2876; assay: microbe, parasite or virus in culture; assay type: cell-based; settings: RPMI broth microdilution, 35° C., 48 hours, visual
Experimental: as §3, §4, §5, §6, §7, §8, §9

[14] = test system: Candida dubliniensis ATCC MYA-646; assay: microbe, parasite or virus in culture; assay type: cell-based; settings: RPMI broth microdilution, 35° C., 48 hours, visual
Experimental: as §3, §4, §5, §6, §7, §8, §9

[15] = test system: Candida tropicalis ATCC 750; assay: microbe, parasite or virus in culture; assay type: cell-based; settings: RPMI broth microdilution, 35° C., 48 hours, visual
Experimental: as §3, §4, §5, §6, §7, §8, §9

[16] = test system: Candida krusei ATCC 6258; assay: microbe, parasite or virus in culture; assay type: cell-based; settings: RPMI broth microdilution, 35° C., 48 hours, visual
Experimental: as §3, §4, §5, §6, §7, §8, §9

[17] = test system: Candida albicans (Olomouc); assay: microbe, parasite or virus in culture; assay type: cell-based; settings: RPMI broth microdilution, 35° C., 48 hours, visual
Experimental: as §3, §4, §5, §6, §7, §8, §9

[18] = test system: Candida glabrata DSY 565; assay: microbe, parasite or virus in culture; assay type: cell-based; settings: RPMI broth microdilution, 35° C., 48 hours, visual
Experimental: as §3, §4, §5, §6, §7, §8, §9

[19] = test system: Candida albicans Olomouc; settings: for Antimicrobial activity MIC C. a. Olomouc: Candida albicans Olomouc, YPD medium, 37° C., 20 h (Example 2)
Experimental: as §1, §2

[20] = in vitro; settings: human
Experimental: The peptides in the concentrations 2-200 μmol.l^−1 were incubated with the suspension of human red blood cells (5% v/v) for 1 h at 37° C. in a physiological solution at a final volume of 0.2 ml. The samples were then centrifuged for 5 min at 250 g, and the absorbance of the supernatant was determined at 540 nm. Supernatants of red blood cells suspended in physiological solution and in 0.2% (v/v) TRITON X100 in physiological solution served as controls for zero hemolysis (blank) and 100% hemolysis, respectively. Hemolytic activity is expressed as the peptide concentration required for lysis of 50% of human erythrocytes in the assay (LC50).

[21] = synthetically prepared hylanine, in words

| Compound | Antimicrobial activity MIC S. a. Motol [1] [µmol/L] | Antimicrobial activity MIC P. a. 5482 [2] [µmol/L] | Antimicrobial activity MIC S. a. 6271 [3] [µmol/L] | Antimicrobial activity MIC B. s. [4] [µmol/L] | Antimicrobial activity MIC M. l. [5] [µmol/L] | Antimicrobial activity MIC E. c. [6] [µmol/L] | Antimicrobial activity MIC S. e. Motol [7] [µmol/L] | Antimicrobial activity MIC P. a. Liberec [8] [µmol/L] | Antimicrobial activity MIC E. f. Motol [9] [µmol/L] | Antimicrobial activity MIC S. a. Liberec [10] [µmol/L] | FIC indexes (fractional inhibitory concentration) Combination with RIF against P. aeruginosa [11] | FIC indexes (fractional inhibitory concentration) Combination with TET against P. aeruginosa [11] | Antifungal activity MIC C. glabrata ATCC 2001 [12] [µmol/L] | Antifungal activity MIC C. albicans ATCC MYA-2876 [13] [µmol/L] | Antifungal activity MIC C. dubliniensis ATCC MYA-646 [14] [µmol/L] | Antifungal activity MIC C. tropicalis ATCC 750 [15] [µmol/L] | Antifungal activity MIC C. krusei ATCC 6258 [16] [µmol/L] | Antifungal activity MIC C. albicans Olomouc [17] [µmol/L] | Antifungal activity MIC C. glabrata DSY 565 [18] [µmol/L] | Antimicrobial activity MIC C. a. Olomouc [19] [µmol/L] | other results |
| --- | --- | --- | --- | --- | --- | --- | --- | --- | --- | --- | --- | --- | --- | --- | --- | --- | --- | --- | --- | --- | --- |
| CN(C)[C@@H]1C(=O)C(C(N)=O)=C(O)[C@@]2(O)C(=O)C3=C(O)c4c(O)cccc4[C@@](C)(O)[C@H]3C[C@@H]12 [Tetracyklin, Tetracycline, reference compound] | 2.0 | 28.7 | 0.9 | 16.0 | 0.8 | 2.7 | >100 | 70.4 | 40.0 | 1.1 | – | – | – | – | – | – | – | – | – | – | – |
| H-GILSSLLKKLKKWIAK-NH2 [XVIII] | 4.0 | 8.0 | 8.0 | 1.3 | – | 4.0 | 1.6 | 20.7 | 25.3 | 2.5 | 0.271 | 0.625 | 8.5 | 10.0 | 10.0 | 1.2 | 7.8 | 8.5 | 24.0 | 16.0 | HC50 at 1 h [20]: 160 µM |
| H-GILSSLWKKLKKWIAK-NH2 [XVII] | 2.0 | 12.7 | 2.5 | 1.3 | – | 2.5 | 1.6 | 24.1 | 10.0 | 1.6 | 0.292 | 0.417 | 5.5 | 5.5 | 5.0 | 0.8 | 3.3 | 4.5 | 11.0 | 12.7 | HC50 at 1 h [20]: 57.2 µM |
| H-GIMSSLMKKLAAHIAK-NH2 [hylanine, reference compound] | – | – | – | – | – | – | – | – | – | – | – | – | – | – | – | – | – | – | – | – | activity against the yeast Candida albicans [19, 21]: moderate activity; antimicrobial activity against Bacillus subtilis [4, 21]: high antimicrobial activity; antimicrobial activity against Micrococcus luteus [5, 21]: high antimicrobial activity; activity against Pseudomonas aeruginosa ([8]; all strains, in words): weak; activity against Staphylococcus aureus ([10]; all strains of pathogenic Staphylococcus aureus, in words): weak |
| H-GIMSSLMKKLAAHIKK-NH2 [VIII] | 90.0 | 23.0 | 85.3 | 2.8 | 1.6 | 20.0 | 11.3 | 46.0 | >100 | 76.7 | – | – | 26.0 | 20.0 | 36.0 | 1.1 | 10.0 | 17.0 | 66.7 | 5.0 | – |
